What all share (assay type): cell-based
Test [1] addresses T1, NAD(P)H:quinone oxidoreductase-1 (NQO1) (Homo sapiens, UniProt P15559). The test can be described thus: NQO1 activity. To be noted: KKU100, read-out: % inhibition at 4.55 μM.
Test [2] concerns the target T1, NAD(P)H:quinone oxidoreductase-1 (NQO1). The test can be described thus: single-concentration NQO1 activity screen. As to conditions: read-out: % inhibition at 4.55 μM.
Test [3] has the same target. The test can be described thus: NQO1 activity. As to conditions: KKU100, read-out: % inhibition at 4.55 μM. This is another data set of the same source.

T1 sequence (P15559 whole entry): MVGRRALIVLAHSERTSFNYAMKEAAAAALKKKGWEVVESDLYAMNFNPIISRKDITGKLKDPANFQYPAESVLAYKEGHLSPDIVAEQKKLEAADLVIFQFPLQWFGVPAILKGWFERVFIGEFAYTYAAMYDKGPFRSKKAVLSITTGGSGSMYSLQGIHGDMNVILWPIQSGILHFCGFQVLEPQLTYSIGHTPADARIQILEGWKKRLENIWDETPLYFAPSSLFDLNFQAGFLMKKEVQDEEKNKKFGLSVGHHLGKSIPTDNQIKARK

The term inhibition denotes the relative decrease from the control value, in per cent. Consider `O=c1ccc2cc(O)c(O)cc2o1` [aesculetin], for which the inhibition at 4.55 µM in test [1] worked out at 34.9%.

Take `O=c1ccc2ccccc2o1` [coumarin]: in test [1], the inhibition at 4.55 µM came to 41.8%.

With `O=c1cc(-c2ccc(O)c(O)c2)oc2cc(O)cc(O)c12` [luteolin], in test [2], the inhibition at 4.55 µM was 55%.

On to `COc1cc2ccc(=O)oc2cc1O` [scopoletin], for which the inhibition at 4.55 µM in test [3] is 77.4%.

On to `O=c1ccc2ccc(O)cc2o1` [umbelliferone], for which the inhibition at 4.55 µM in test [3] stood at 63.5%.

For the origin of these results see article PMC7240875 (Integrative Cancer Therapies, 2018).
